Columns and labels:
[1] = tested on: BJAB cells; experiment: Cell death of BJAB cells after incubation with JV-206-1 (FIG. 6A); assay type: cell-based; conditions: incubation for 48 hours
Method: (§1) Further studies had the result that the BJAB cells are driven to the mitochondrial apoptosis signal pathway by JV-206-1. […] In addition, the fragmentation of the DNA was measured as a specific characteristic of apoptosis as described by Essmann et al. (2000). […] In these experiments, the proportion of apoptotic cells was between 20% and 48% of the total population, depending on the concentration and incubation time.

[2] = tested on: BJAB cells; experiment: DNA fragmentation (propidium iodide staining, flow cytometry) apoptosis assay in BJAB cells; assay type: cell-based; conditions: 20 μM
Method: The measurement of apoptosis is based on a method which detects the fragmentation of DNA on the level of individual cells, which is typical of apoptosis and distinguishes this form of cell death from necrosis. Thus, BJAB cells were treated with different concentrations of N76 or N69 for 24 h. Controls contained corresponding amounts of the solubilizer ethanol. After the treatment, the fragmentation of DNA was measured by staining with propidium iodide followed by quantification by flow cytometry as described by Essmann et al. (2000). The values are stated as % of apoptotic cells based on the total population±SD (n=3).
as §1

[3] = tested on: BJAB cells; experiment: Mitochondrial membrane potential (JC-1 staining) in BJAB cells; assay type: cell-based
Method: as §1

[4] = tested on: cells from patients suffering from different leukemias; experiment: DNA fragmentation apoptosis assay in cells from patients suffering from different leukemias; assay type: cell-based, human; conditions: 25 μmol/l, 36 h
Method: The usefulness of substances according to the invention for the therapy of various malignant diseases of the hematopoetic system was tested on cells from patients suffering from different diseases. Thus, cells from patients suffering from different leukemias were isolated and, after dilution with cell culture medium, treated for 36 h with 25 μM N69. Controls contained corresponding amounts of the solubilizer ethanol. After the treatment, the fragmentation of the DNA was measured by staining with propidium iodide followed by quantification by flow cytometry as described by Essmann et al. (2000). The result can be seen in FIG. 3. The measured values are stated as % of apoptotic cells based on the total population and represent the mean value from duplicate experiments.

[5] = tested on: BIAB cells; experiment: Combined proliferation and cell death assay (Neubauer cell counting, trypan blue staining); assay type: cell-based; conditions: 25 μM, after 24 h
Method: To further characterize the role of the various components of the newly described substances, the iron-complexed compound N69 and the compound obtainable from N69 by cleaving the Fe(CO)3 group were prepared and employed in a combined proliferation and cell death assay. Thus, BIAB cells were treated for 24 h and 72 h. with different concentrations of N69 or the corresponding compound lacking the iron complex. Controls contained corresponding amounts of the solubilizer ethanol. After the treatment, the number of cells was counted in a Neubauer counting chamber, and the number of dead cells was counted by trypan blue staining as described by Wieder et al. (1995). […] FIG. 5B states the proportion of dead cells in %±SD (n=3) as determined at these times at the respective concentration. […] As can be easily seen, the complexed iron plays an important role in the cell-death inducing activity of the substances. The complexed iron shifts the dose-effect curve of the cell-death inducing effect of N69 towards lower concentrations.

[6] = tested on: lymphoblasts from children afflicted with acute lymphoblastic leukemia (ALL); experiment: DNA fragmentation apoptosis assay in primary lymphoblasts from children with acute lymphoblastic leukemia (ALL); assay type: cell-based, human; conditions: 25 μM, 36 h
Method: In this experiment, lymphoblasts from children afflicted with acute lymphoblastic leukemia (ALL) were isolated and, after dilution with cell culture medium, treated for 36 h with 25 μM N76, 25 μM N69 or with 9 μM epirubicin (E) as a positive control. Controls contained corresponding amounts of the solubilizer ethanol. After the treatment, the fragmentation of the DNA was measured by staining with propidium iodide followed by quantification by flow cytometry as described by Essmann et al. (2000). The values are stated as % of apoptotic cells based on the total population±SD (n=3).
Thus, with N76 and N69, two substances of general structural formula 2 are provided as effective agents against certain tumor cells, especially those of childhood ALL, but also against other malignant diseases of different origin. […] In these experiments, the cells from eleven ALL patients were isolated and, after dilution with cell culture medium, treated for 36 h with 25 μM N69, 25 μM N76 or corresponding amounts of cytarabin (AraC), fludarabin or doxorubicin. […] After the treatment, the fragmentation of the DNA was measured by staining with propidium iodide followed by quantification by flow cytometry as described by Essmann et al. (2000). P values were calculated from a paired t test and are stated in FIG. 4 directly for the individual pairs to be compared. […]

| Compound | induction of cell death [1] | cell death by apoptosis (DNA fragmentation) [2] | fraction of cells having a reduced mitochondrial membrane potential (ΔΨm) [3] | induction of apoptotic cell death ([4]; cells from patients suffering from acute myeloblastic leukemia (AML)) | induction of apoptotic cell death ([4]; cells from patients suffering from chronic myeloblastic leukemia (CML)) | induction of apoptotic cell death ([4]; cells from patients with a first manifestation of ALL) | induction of apoptotic cell death ([4]; cells from patients with a recurrence of acute lymphoblastic leukemia (ALL-Rez)) | proportion of dead cells (trypan blue) [5] | pro-apoptotic effect in vitro towards primary ALL cells compared to established cytostatic agents ([6]; cells from eleven ALL patients, versus doxorubicin, cytarabin and fludarabin-5′ dihydrogenphosphate, paired t test) | induction of apoptosis in vitro in therapy-resistant cells of patients ([6]; ALL lymphoblasts, in contrast to 9 μM epirubicin (positive control)) |
| --- | --- | --- | --- | --- | --- | --- | --- | --- | --- | --- |
| CCOC(=O)C=CC1=C[C@H](n2cc(Br)c(=O)[nH]c2=O)C[C@H]1CO[Si](C)(C)C(C)(C)C(C)C.O=[C]=[Fe](=[C]=O)=[C]=O (racemic) [JV-206-1, (3RS,5RS)-3-[3-(5-bromo-2,4-dioxo-3,4-dihydro-2H-pyrimidin-1-yl)-5-[dimethyl-(1,1,2-trimethylpropyl)silanyloxymethyl]-cyclopent-1-enyl]acrylic-acid-ethyl-estertricarbonyliron] | induces cell death | major part of the cells die | concentration-dependent increase |  |  |  |  |  |  |  |
| exo-[2′,2″,3′,3″-η-(3′-(3″-(E)-acrylic-acid-ethyl-ester-3″-yl)-2′,3′-didehydro-2′,3′-dideoxy-5′-O-(dimethylthexylsilyl)-β-D-cytidine)]tricarbonyliron [N69] |  |  |  | induces apoptotic cell death | induces apoptotic cell death | induces apoptotic cell death | induces apoptotic cell death | about 90% | significantly better pro-apoptotic effect | induce apoptosis |

Reference: patent US20040116448A1, “Substances for the therapy of diseases caused by highly proliferating cells” (priority 2001, published 2004)
